Assay results from patent US11413266B2, “Use of cannabinoids in the treatment of inflammatory skin diseases” (GW Pharma Limited, priority 2015, dated 2022).

What was measured:
[1] = tested on: MCP-2; experiment: MCP-2 ELISA in supernatants of poly-(I:C)-stimulated HaCaT cells; assay type: cell-based, human; settings: poly-(I:C)-stimulated HaCaT; for MCP-2 production: 6 h; for MCP-2 protein levels: all tested at 5, 10 and 20 μM, data not shown
[2] = tested on: IL6; experiment: PolyIC-induced IL6 release in NHEK keratinocytes, ELISA; assay type: cell-based, human; settings: NHEKs; for PolyIC-induced elevated release of IL6: concentration not singled out (0.3 and 3 μM tested); for TLR3-activation induced augmented release of IL6: higher concentration
[3] = tested on: IL8; experiment: PolyIC-induced IL8 release in NHEK keratinocytes, ELISA; assay type: cell-based, human; settings: NHEKs; for TLR3-activation induced augmented release of IL8: higher concentration
[4] = tested on: human epidermal keratinocytes; experiment: Summary score, TLR3-induced inflammation model (microbial infection-induced dermatitis); assay type: cell-based
[5] = tested on: IL6; experiment: UVB-induced IL6 mRNA expression in HaCaT keratinocytes, RT-qPCR; assay type: cell-based, human
[6] = tested on: IL6; experiment: UVB-induced IL6 release in HaCaT keratinocytes, ELISA; assay type: cell-based, human
[7] = tested on: IL8; experiment: UVB-induced IL8 mRNA expression in HaCaT keratinocytes, RT-qPCR; assay type: cell-based, human
[8] = tested on: IL8; experiment: UVB-induced IL8 release in HaCaT keratinocytes, ELISA; assay type: cell-based, human
[9] = tested on: IL8; experiment: UVB-induced IL8 release in NHEK keratinocytes, ELISA; assay type: cell-based, human; settings: NHEKs; only at given (mostly lower) concentrations
[10] = tested on: human epidermal keratinocytes; experiment: Summary score, UVB-induced inflammation model (solar dermatitis); assay type: cell-based
[11] = tested on: IL8; experiment: SEB/TSLP-induced IL8 release in HPV-Ker keratinocytes, ELISA; assay type: cell-based, human; settings: lower concentrations
[12] = tested on: HPV-Ker keratinocytes; experiment: Summary score, SEB/TSLP-induced inflammation model (atopic dermatitis); assay type: cell-based, human; settings: for SCORE: sum of +1 anti-inflammatory, 0 no effect, −1 pro-inflammatory, Table 3; for Overall action in the SEB/TSLP-induced inflammation model: conclusion on Table 3
[13] = tested on: IL6; experiment: UVB-induced IL6 release in NHEK keratinocytes, ELISA; assay type: cell-based, human; settings: NHEKs; for UVB-upregulated expression of IL6: only at given (mostly lower) concentrations; for UVB-upregulated IL6: higher concentrations
[14] = tested on: IL6; experiment: PolyIC-induced IL6 release in HPV-Ker keratinocytes, ELISA; assay type: cell-based, human; settings: HPV-KER cells
[15] = tested on: ACD in 2,4-dinitrofluorobenzene (DNFB)-treated wild-type mice; settings: Karsak et al. 2007, cited from earlier work
[16] = concentration not singled out (0.3 and 3 μM tested)
[17] = 0.3 μM, sum of +1 anti-inflammatory, 0 no effect, −1 pro-inflammatory, Table 1
[18] = 3 μM, sum of +1 anti-inflammatory, 0 no effect, −1 pro-inflammatory, Table 1
[19] = 0.3 μM, sum of +1 anti-inflammatory, 0 no effect, −1 pro-inflammatory, Table 2
[20] = 3 μM, sum of +1 anti-inflammatory, 0 no effect, −1 pro-inflammatory, Table 2

Compound	MCP-2 production ([1]; 5 μM)	MCP-2 production ([1]; 10 μM)	MCP-2 production ([1]; 20 μM)	PolyIC-induced elevated release of IL6 [2]	PolyIC-induced elevated release of IL8 [3, 16]	SCORE [4, 17]	SCORE [4, 18]	UVB-upregulated IL6 (RT-qPCR) ([5]; 0.3 μM)	UVB-upregulated IL6 (ELISA) ([6]; 0.3 μM)	UVB-upregulated IL8 (RT-qPCR) ([7]; 0.3 μM)	UVB-upregulated IL8 (RT-qPCR) ([7]; 3 μM)	UVB-upregulated IL8 (ELISA) ([8]; 0.3 μM)	UVB-upregulated IL8 (ELISA) ([8]; 3 μM)	SCORE [10, 19]	SCORE [10, 20]	SCORE ([12]; 0.3 μM)	SCORE ([12]; 3 μM)	MCP-2 protein levels [1]	UVB-upregulated IL6 (RT-qPCR) ([5]; 3 μM)	UVB-upregulated IL6 (ELISA) ([6]; 3 μM)	also measured
CCCCCc1cc(O)c2c(c1)OC(C)(CCC=C(C)C)C=C2 (stereo not drawn) [CBC, cannabichromene]	no effect	no effect	able to reduce																		
C=C(C)[C@@H]1CCC(C)=C[C@H]1c1c(O)cc(CCCCC)c(C(=O)O)c1O [CBDA, Cannabidiolic acid]				dose-dependent suppression	dose-dependent suppression	7	10	pro-inflammatory effects	pro-inflammatory effects	pro-inflammatory effects	pro-inflammatory effects	pro-inflammatory effects	pro-inflammatory effects	1	−1	0	1	No effect			UVB-upregulated expression of IL8 [9]: significantly suppress; SEB/TSLP-induced up-regulation of IL8 release [11]: did not induce any significant effect; Overall action in the SEB/TSLP-induced inflammation model [12]: most effective
C=C(C)[C@@H]1CCC(C)=C[C@H]1c1c(O)cc(CCC)cc1O [CBDV, Cannabidivarin]				did not affect				anti-inflammatory effects			anti-inflammatory effects		anti-inflammatory effects			0	1		anti-inflammatory effects	anti-inflammatory effects	TLR3-activation induced augmented release of IL8 [3]: significantly further augmented; SCORE ([4]; 0.3 µM): 7; SCORE ([4]; 3 µM): 5; UVB-upregulated expression of IL6 [13]: significantly suppress; SCORE ([10]; 0.3 µM): 2; SCORE ([10]; 3 µM): 5; SEB/TSLP-induced up-regulation of IL8 release [11]: did not induce any significant effect; Overall action in the SEB/TSLP-induced inflammation model [12]: most effective
C=C(C)[C@@H]1CCC(C)=C[C@H]1c1c(O)cc(CCC)c(C(=O)O)c1O [CBDVA, cannabidivarinic acid]																		No effect			
CCCCCc1cc(O)c(C/C=C(\C)CCC=C(C)C)c(O)c1 [CBG, Cannabigerol]	no effect	no effect	able to reduce	dose-dependent suppression	dose-dependent suppression	5	9	anti-inflammatory effects					pro-inflammatory effects	2	3	0	1		anti-inflammatory effects	anti-inflammatory effects	UVB-upregulated IL6 [13]: pro-inflammatory effects; UVB-upregulated expression of IL8 [9]: significantly suppress; SEB/TSLP-induced up-regulation of IL8 release [11]: did not induce any significant effect; Overall action in the SEB/TSLP-induced inflammation model [12]: most effective
CCCCCc1cc(O)c(C/C=C(\C)CCC=C(C)C)c(O)c1C(=O)O [CBGA, cannabigerolic acid]																		No effect			
CCCc1cc(O)c(C/C=C(\C)CCC=C(C)C)c(O)c1 [CBGV, Cannabigervarin]		able to reduce			did not affect	5	5	anti-inflammatory effects	pro-inflammatory effects	pro-inflammatory effects	pro-inflammatory effects	pro-inflammatory effects	pro-inflammatory effects	−1	2	−1	1		anti-inflammatory effects	anti-inflammatory effects	PolyIC-induced IL6 levels ([14]; 0.3 μM): did not affect; TLR3-activation induced augmented release of IL6 ([14]; 3 μM): significantly further augmented; TLR3-activation induced augmented release of IL6 [2]: significantly further augmented; UVB-upregulated expression of IL6 [13]: significantly suppress
CCCCCc1cc(O)c2c(c1)OC(C)(C)[C@@H]1CCC(C)=C[C@@H]21 [THC, tetrahydrocannabinol]																					ACD ([15]; subcutaneous and topical application): attenuated; ear swelling ([15]; vs untreated mice): significantly decreased; recruitment of Gr-1 positive granulocytes ([15]; vs untreated mice): reduced
CCCc1cc(O)c2c(c1)OC(C)(C)[C@@H]1CCC(C)=C[C@@H]21 [THCV, Tetrahydrocannabivarin]	no effect	able to reduce	able to reduce			7	7		anti-inflammatory effects	anti-inflammatory effects		anti-inflammatory effects	pro-inflammatory effects	4	0	−1	1		anti-inflammatory effects	pro-inflammatory effects	TLR3-activation induced augmented release of IL6 [2]: significantly further augmented; PolyIC-induced IL6 level ([2]; low concentration): did not affect; TLR3-activation induced augmented release of IL8 [3]: did not affect; PolyIC-induced elevated release of IL8 ([3]; low concentration): significantly suppressed; UVB-upregulated IL6 [13]: pro-inflammatory effects
CCCc1cc2c(c(O)c1C(=O)O)[C@@H]1C=C(C)CC[C@H]1C(C)(C)O2 [THCVA, tetrahydrocannabivarinic acid]																		No effect			
